The subject of experiment [1] is P. falciparum T618Q asexual stage parasites. The experiment is described as follows: Growth inhibition assay, asexual stage parasites expressing PfPKG T618Q. It counts as cell-based. To be noted: Plasmodium falciparum, 72 h, read-out: P. falciparum EC50 (±SD) T618Q. Here is the method: lines were maintained with O+ human erythrocytes (BioIVT). WT 3D7A10 and T618Q parasites were kind gifts from Dr. David Fidock (Columbia University) and Dr. David Baker (London School of Tropical Medicine and Hygiene), respectively. Growth inhibition assays were performed as previously described. Parasites were grown in RPMI 1640 medium (Sigma-Aldrich, St. Louis, MO, U.S.A.) supplemented with 5 mg/mL Albumax (Gibco), 50 μg/mL hypoxanthine (Sigma-Aldrich), 2 mg/mL Na2CO3 (Sigma-Aldrich), 25 mM HEPES, and 50 μg/mL gentamicin (Gibco). The growth assay was initiated with cultures with >80% ring stage parasites, diluted to a parasitemia of 0.4% and a hematocrit of 1%. Parasites were transferred to a 96-well plate with test compounds, vehicle, or DHA as positive control, and maintained for 72 h in 5% CO2, 5% O2, and 90% N2 in a humidified chamber. Parasite viability at 72 h was determined by addition of SYBR Green I nucleic acid stain (Thermo Fisher Scientific, S7563) and Mitotracker Deep Red (Fisher M422426) followed by flow cytometry on a BD FACSVerse using BD FACSuite software. Data acquired were analyzed using Flowjo software. EC50 values were derived by nonlinear regression in Graph Pad Prism 7.

Experiment [2] deals with T. gondii tachyzoites expressing TgPKG T761Q. Briefly: Proliferation EC50, host fibroblast nuclei count, TgPKG T761Q mutant. It counts as cell-based. To be noted: for EC50: Toxoplasma gondii, Fibroblast. Here is the method:
(§1) Human Foreskin Fibroblasts (HFF) were cultured in DMEM, with D-glucose (4.5 g/L), L-glutamine, and sodium pyruvate (110 mg/L) (Gibco) that were further supplemented with 10% Fetal Clone 1 serum (FCS)(HyClone), 50 U/mL penicillin (Gibco), […] streptomycin (Gibco), and 1× GlutaMax (Gibco). HFF cells were cultured in T25 flasks (Corning) in a humidified incubator at 37 °C and 5% CO2. For culture, media was replaced with DMEM, as described above, with 1% FCS. Mutant strains were created as described in.
Presence of desired mutations in parasite lines, TgCDPK1^G128M, TgCDPK1^G128M + TgMAPKL1^L162Q and […] was verified through sequencing. Compounds were dissolved in DMSO and serially diluted 4-fold across the first 10 wells of a 96 well plate, with the highest drug concentration in the first column being 25 μM. The strain of was then added to the first 11 columns of the 96-well plate at a density of 4000 parasites per well. The 11th column contained no compounds, and the 12th column contained no parasites and no compound. After 5 days of incubation at 37 °C and 5% CO2, cells were washed with PBS and fixed with 4% PFA in PBS (Thermo Fisher Scientific, Waltham, MA, USA). After fixing, cells were washed three times with PBS and stained with 300 nM DAPI in PBS before being washed again three times with PBS.
Images were acquired in an ImageXpress Pico Automated Cell Imaging System (Molecular Devices, San Jose, CA, USA) with a 4× objective using UV fluorescence. Following imaging, ImageXpress software was used to count objects with a fluorescence intensity ≥8 and a size of 12–30 μm, giving a total count of host cell nuclei for each well. EC50 were determined based on the number of remaining fibroblast nuclei using a nonlinear regression analysis with GraphPad Prism software version 10.0.0 for Windows, GraphPad Software, Boston, Massachusetts USA. Each compound was tested in ≥3 experiments in quadruplicate rows.

Experiment [3] deals with T. gondii RH strain with L162Q substitution in TgMAPKL1. The experiment is described as follows: Proliferation EC50, β-galactosidase readout, TgMAPKL1 L162Q. The experiment is classed as cell-based. To be noted: for EC50: Toxoplasma gondii, 72 h, read-out: T. gondii EC50 (±SD) MAPKL1 L162Q. Here is the method: as §1
An RH strain of with an L162Q substitution in TgMAPKL1 introduced by CRISPR/Cas9 site directed mutagenesis into a clone expressing β-galactosidase was used to determine the EC50s for proliferation. Compounds were dissolved in DMSO and serially diluted 4-fold across the first 11 columns of a 96 well plate from the highest concentration of 25 μM leaving the final column with no drugs. was added to the first 11 columns of the 96 well plate at 4000 parasites per well. The last column contained no compound. Plates were incubated 72 h at 37 °C and 5% CO2. were quantified by spectrophotometrically measuring the β-galactosidase concentration of each well after cell lysis and exposure to chlorophenol red β-galactopyranose (Sigma-Aldrich, St. Louis, MO) substrate. Each compound was tested at least three times in quadruplicate.

In experiment [4] the target is T1, TgCDPK1 WT (Toxoplasma gondii, UniProt Q9BJF5).
T1 sequence (Q9BJF5 1-507): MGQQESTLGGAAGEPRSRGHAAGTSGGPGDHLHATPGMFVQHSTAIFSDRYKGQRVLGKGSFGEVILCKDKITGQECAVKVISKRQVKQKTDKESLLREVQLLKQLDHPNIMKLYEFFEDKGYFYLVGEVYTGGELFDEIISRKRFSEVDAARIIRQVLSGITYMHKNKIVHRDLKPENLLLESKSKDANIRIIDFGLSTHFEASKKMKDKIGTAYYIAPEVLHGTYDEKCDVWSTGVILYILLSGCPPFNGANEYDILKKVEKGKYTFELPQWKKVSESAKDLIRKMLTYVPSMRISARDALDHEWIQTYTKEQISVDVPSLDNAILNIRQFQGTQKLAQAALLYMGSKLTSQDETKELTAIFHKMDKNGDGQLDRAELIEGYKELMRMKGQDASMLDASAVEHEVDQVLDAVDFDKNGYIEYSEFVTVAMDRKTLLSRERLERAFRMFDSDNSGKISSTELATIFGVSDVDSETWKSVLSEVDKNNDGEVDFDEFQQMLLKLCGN
The experiment is described as follows: biochemical. Here is the method: (§2) Recombinant expression of PfCDPK1, PfCDPK4, TgCDPK1 WT, TgCDPK1-G128M, CpCDPK1 and CpCDPK1-G152 M were purified as previously described. […] These reactions were performed in a buffer composed of 1 mM EGTA (pH 7.2), 10 mM MgCl2, 20 mM HEPES pH 7.5 (KOH), 0.1% BSA. The reactions were initiated with addition of 10 μM ATP and 2 mM CaCl2 as enzyme activation reagent. Reaction plates were incubated for 90 min with 90 rpm agitation at 30 °C. […] KinaseGlo (Promega) luminescence-based assay in which luminescence is inversely related to kinase activity and […] was used as previously described.

For experiment [5], the system named is T. gondii RH strain expressing β-galactosidase, parental. Briefly: Proliferation EC50, β-galactosidase readout, parental strain. To be noted: Toxoplasma gondii, 72 h, read-out: T. gondii EC50 (±SD) CONTROL. The experiment is classed as cell-based.
In experiment [6] the target is T2, CpCDPK1 (Cryptosporidium parvum, UniProt A3FQ16).
T2 construct: made in house
T2 sequence (A3FQ16 1-538): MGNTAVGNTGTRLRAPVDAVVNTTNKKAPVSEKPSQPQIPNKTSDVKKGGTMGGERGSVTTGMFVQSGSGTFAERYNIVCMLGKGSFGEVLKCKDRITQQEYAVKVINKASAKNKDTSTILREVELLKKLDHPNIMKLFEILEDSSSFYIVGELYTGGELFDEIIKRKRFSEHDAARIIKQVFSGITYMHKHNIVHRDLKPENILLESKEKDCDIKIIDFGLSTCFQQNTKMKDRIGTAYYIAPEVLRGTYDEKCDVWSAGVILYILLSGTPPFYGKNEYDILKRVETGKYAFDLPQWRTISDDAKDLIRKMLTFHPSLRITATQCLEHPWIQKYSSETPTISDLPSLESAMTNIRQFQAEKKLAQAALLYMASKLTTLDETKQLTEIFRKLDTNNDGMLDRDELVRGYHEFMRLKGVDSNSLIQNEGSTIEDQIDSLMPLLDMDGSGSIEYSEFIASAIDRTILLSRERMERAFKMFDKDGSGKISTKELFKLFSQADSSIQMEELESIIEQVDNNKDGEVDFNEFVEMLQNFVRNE
The experiment is described as follows: CDPK enzyme activity assay, CpCDPK1 WT. The experiment is classed as biochemical, C. parvum. Here is the method: as §2

Where [7] appears, read: read-out: T. gondii EC50 (±SD) PKGT761Q.

Where two headings read alike, the source gives them in different places.

Consider `O=C(c1nccs1)N1CC[C@@H](Nc2nccc(-n3cc(C4CC4)nc3-c3cccc(Cl)c3)n2)C1` [(R)-RY-1-185], for which the EC50 in experiment [1] turned out to be 10100 nM; in experiment [2] (setting [7]), 170 nM; in experiment [2] (read-out: average EC50 against the T761Q mutants), 161 nM; in experiment [3], 330 nM; in experiment [5], 120 nM. The “increase in EC50, T761Q mutants versus parental” value in experiment [2] (average) was determined as 1.7 fold. Moreover, in experiment [3], the “increase in EC50 against TgMAPKL-1 L162Q parasites versus parental strain” value is listed as “approximately 2.75 fold”. For the same compound, the IC50 was determined as 60 nM in experiment [4] and 90 nM in experiment [6] (Kinase-Glo assay, mean ± SD, n = 2–3 experiments, read-out: CpCDPK1 IC50 (±SD) WT).

Turning to `O=C(c1nccs1)N1CC[C@@H](Nc2nccc(-n3cc(C4CC4)nc3-c3ccccc3)n2)C1` [(R)-RY-1-165], the EC50 in experiment [1] is 13400 nM; in experiment [2] (setting [7]), 390 nM; in experiment [3], 560 nM; in experiment [5], 530 nM. The “change in relative EC50, T761Q parasites versus parental controls” value in experiment [2] (in 2 experiments) is given as “no change”. The “increase in EC50 against T761Q parasites relative to parental controls” value in experiment [2] (in 3 experiments) was 1.8–2.8 fold. In addition, the “increase in EC50 against TgMAPKL-1 L162Q parasites versus parental strain” value in experiment [3] is “did not demonstrate a significant change in EC50”. The IC50 is 50 nM in experiment [4] and 170 nM in experiment [6]. For the same compound, the “IC50 for TgCDPK1 lower than for PfCDPK4” value in experiment [4] (TgCDPK1 versus PfCDPK4, 90 min) is on record as “over 30 fold”.

Values taken from publication PMC12333026, “Versatile Imidazole Scaffold with Potent Activity against Multiple Apicomplexan Parasites” (ACS Infectious Diseases, 2025).
